Reference: patent US20050171084A1, “Methods of treatment with lxr modulators” (priority 2002, published 2005)

Key:
[1] = tested on: ABCG1; assay: ABCG1 gene expression in the CNS after oral dosing; assay type: in vivo, C57 B1/6 mice; settings: oral gavage, Example 1 10 mg kg twice daily, T0901317 50 mg/kg once daily
Protocol: (§1) Total RNA was isolated from tissue and cell culture samples using TRIzol reagent (GibcoBRL). Briefly, tissue samples were thawed directly in 1 ml Trizol/50 mg tissue and homogenized with a polytron. To facilitate recovery of nucleic acid, 100 μg glycogen (Ambion) was added. Cultured cells were lysed in 1 ml Trizol containing 100 μg glycogen per well. Samples were then extracted in chloroform and spun at 4° C. at 11,000×g for 15 min. The aqueous phase was collected and the RNA was precipitated with the addition of isopropanol. The samples were then spun at 11,000×g at 4° C. for 15 min, the pellet washed in 75% ethanol, dried, and dissolved in water. Samples were stored at −70° C. until use.
(§2) Total RNA samples were diluted to 100 μg/ml and treated with 40 units/ml […] DNAse-I (Ambion) for 30 min at 37° C. followed by inactivation at 75° C. for 5 min. Samples were quantitated by spectrophotometry or with the RiboGreen assay (Molecular Probes) and diluted to a concentration of 10 ng/μl. Samples were then assayed in duplicate or triplicate 25-μl reactions using 25 ng RNA per reaction with Perkin Elmer chemistry on an ABI Prism 7700 (Perkin Elmer) according to manufacturer's instructions. Gene-specific primers were used at 7.5 or 22.5 pmol per reaction, optimized for each gene examined, and the gene-specific probe was used at 5 pmol per reaction. Primers and probe were synthesized by Keystone Labs (Camarillo, Calif.). In this system, the probe is degraded by Taq polymerase during the amplification phase, releasing the fluorescent tag from its quenched state; amplification data is expressed as the number of PCR cycles required to elevate the fluorescence signal beyond a threshold intensity level. Fold induction values were calculated by subtracting the mean threshold cycle number (Ct) for each treatment group from the mean Ct for the vehicle group and raising 2 to the power of this difference.
(§3) Adult male C57 B1/6 mice (3 per group) were dosed by oral gavage with the LXR agonists Example 1, T0901317, or vehicle (0.5% methylcellulose). Example 1 was delivered at 10 mg kg twice daily, while T0901317 was administered at 50 mg/kg once daily. After 3 or 7 days' treatment, animals were killed and their brains removed. The cerebellum and both hippocampi were dissected and snap frozen in liquid nitrogen for RNA isolation. Total RNA was prepared from the hippocampus and cerebellum (black bars) and analyzed for gene expression patterns using QRT-PCR (as described above). Expression levels for each gene in each tissue were normalized to the average expression level in the vehicle group. Both LXR agonists enhanced ABCA1 expression relative to the vehicle-treated group, with the effect most pronounced in the cerebellum after 3 days' treatment.

[2] = tested on: ABCA1; assay: ABCA1 gene expression in the CNS after oral dosing; assay type: in vivo, C57 B1/6 mice; settings: oral gavage, Example 1 10 mg kg twice daily, T0901317 50 mg/kg once daily
Protocol: as §1, §2, §3

[3] = tested on: ABCG1; assay: ABCG1 gene expression in primary astrocyte cultures (QRT-PCR); assay type: cell-based, mouse; settings: Astrocytes
Protocol: as §1
(§4) Total RNA samples were diluted to 100 μg/ml and treated with 40 units/ml […] DNAse-I (Ambion) for 30 min at 37° C. followed by inactivation at 75° C. for 5 min. Samples were quantitated by spectrophotometry or with the RiboGreen assay (Molecular Probes) and diluted to a concentration of 10 ng/μl. […] In this system, the probe is degraded by Taq polymerase during the amplification phase, releasing the fluorescent tag from its quenched state; amplification data is expressed as the number of PCR cycles required to elevate the fluorescence signal beyond a threshold intensity level. […]

[4] = tested on: ABCA1; assay: ABCA1 gene expression in primary neuron cultures (QRT-PCR); assay type: cell-based, mouse; settings: Neurons
Protocol: as §1, §4

[5] = tested on: Primary murine neuronal cultures; assay: Cholesterol efflux from neurons; assay type: cell-based, mouse; settings: standard deviation in parentheses
Protocol: Primary murine neuronal cultures were prepared from C57 B1/6 mice essentially as described elsewhere (23). In brief, embryonic day 18 fetuses were collected by caesarian section, their brains removed and the cerebral cortices dissected from the rest of the brain. The tissue was rinsed during these steps several times in Ca^2+- and Mg^2+-free Hank's balanced salt solution (HBSS, containing 1 mM HEPES, GIBCO). After the meninges were removed with forceps, the tissue was minced and incubated for 15 minutes at 37° C. in 0.25% trypsin (Sigma) in HBSS. The tissue was then washed twice in HBSS and twice in neuronal plating media (minimal essential media [MEM] containing 3 mg/ml glucose, 5% fetal bovine serum [FBS; GibcoBRL], 5% horse serum [HS; GibcoBRL], 100 U/ml penicillin/100 μg/ml streptomycin [Irvine Scientific] and 2 mM glutamine [Irvine Scientific]) to which 10 μg/ml DNAseI (Sigma) had been added. […] The resulting cell pellet was resuspended in plating media, and trypan blue-excluding surviving cells were counted in a hemacytometer. […]
Cholesterol efflux assays were performed as described elsewhere (24) with some modifications. […] Two hundred microliters of the culture media supernatant and 200 μl of the cell extract were counted for tritium in 2 ml Packard Ultima Gold Scint. […] Efflux is expressed as percent of the total radiolabeled cholesterol pool present in the cultures.

[6] = tested on: SREBP-1c; assay: SREBP-1c gene expression in the CNS after oral dosing; assay type: in vivo, C57 B1/6 mice; settings: oral gavage, Example 1 10 mg kg twice daily, T0901317 50 mg/kg once daily
Protocol: as §1, §2, §3

| ABCG1 expression normalized to vehicle-treated group (fold induction) [3] | ABCA1 expression normalized to vehicle-treated group (fold induction) [4] | Structure (SMILES) | ABCG1 expression normalized to vehicle group ([1]; CB (cerebellum), first table) | ABCG1 expression normalized to vehicle group ([1]; CB (cerebellum), second table) | ABCG1 expression normalized to vehicle group ([1]; HC (hippocampus), first table) | ABCG1 expression normalized to vehicle group ([1]; HC (hippocampus), second table) | ABCA1 expression normalized to vehicle group ([2]; CB (cerebellum), first table) | ABCA1 expression normalized to vehicle group ([2]; CB (cerebellum), second table) | ABCA1 expression normalized to vehicle group ([2]; HC (hippocampus), first table) | ABCA1 expression normalized to vehicle group ([2]; HC (hippocampus), second table) | Cholesterol efflux as a percentage of total [3H] cholesterol [5] | SREBP-1c expression normalized to vehicle group ([6]; CB (cerebellum), first table) | SREBP-1c expression normalized to vehicle group ([6]; CB (cerebellum), second table) | SREBP-1c expression normalized to vehicle group ([6]; HC (hippocampus), first table) | SREBP-1c expression normalized to vehicle group ([6]; HC (hippocampus), second table) |
| --- | --- | --- | --- | --- | --- | --- | --- | --- | --- | --- | --- | --- | --- | --- | --- |
| 12.5 | 3.0 | O=S(=O)(c1ccccc1)N(CC(F)(F)F)c1ccc(C(O)(C(F)(F)F)C(F)(F)F)cc1 [Example T0901317, N-(2,2,2-trifluoroethyl)-N-[4-(2,2,2-trifluoro-1-hydroxy-1-trifluoromethyl-ethyl)-phenyl]-benzenesulfonamide] | 2.31 (0.081) | 1.80 (0.116) | 1.22 (0.098) | 1.37 (0.092) | 3.66 (0.389) | 2.94 (0.084) | 2.70 (0.304) | 2.69 (0.175) | 1.427 (0.031) % | 3.44 (0.632) | 2.97 (0.557) | 2.68 (0.209) | 2.16 (0.110) |
| 14.9 | 2.8 | O=C(O)Cc1cccc(OCCCN(Cc2cccc(C(F)(F)F)c2Cl)CC(c2ccccc2)c2ccccc2)c1 [Example 1, 2-(3-{3-[[2-Chloro-3-(trifluoromethyl)benzyl](2,2-diphenylethyl)amino]propoxy}-phenyl)acetic Acid] | 1.52 (0.073) | 1.17 (0.142) | 1.14 (0.212) | 0.89 (0.045) | 2.13 (0.354) | 1.43 (0.302) | 1.57 (0.348) | 1.26 (0.162) | 1.252 (0.179) % | 2.05 (0.427) | 1.75 (0.236) | 2.22 (0.600) | 0.71 (0.327) |
